Data: PubChem BioAssay (NCI)
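Five compound concentrations were applied to cells in 96-well plates for 48 hours; endpoints were derived by simple linear interpolation of the resulting dose-response curve. The concentration for 50% growth inhibition is given as GI50. At the TGI there is no net growth.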

How the values were obtained:
Test in all cases: DTP human tumour cell line panel, 48 h
TK-10 renal = system: TK-10 renal
SK-MEL-28 melanoma = system: SK-MEL-28 melanoma
OVCAR-5 ovarian = system: OVCAR-5 ovarian
NCI-H23 lung = system: NCI-H23 lung
MOLT-4 leukemia = system: MOLT-4 leukemia
786-0 renal = system: 786-0 renal
HCT-15 colon = system: HCT-15 colon
OVCAR-3 ovarian = system: OVCAR-3 ovarian
HCT-116 colon = system: HCT-116 colon
NCI-H460 lung = system: NCI-H460 lung

Question: `O=C(N/C(=C\c1ccc(Oc2ccc(Cl)c(Cl)c2)cc1)c1nc2ccccc2[nH]1)c1ccccc1` was tested. Which TGI (TK-10 renal) did it give?
Answer: 57.7 µM

Question: What about the TGI (SK-MEL-28 melanoma) of the same molecule?
Answer: 35.1 µM

Question: What about the TGI (OVCAR-5 ovarian) of the same molecule?
Answer: 67.9 µM

Question: And the TGI (NCI-H23 lung)?
Answer: 27.7 µM

Question: And the TGI (MOLT-4 leukemia)?
Answer: 93.4 µM

Question: And the TGI (786-0 renal)?
Answer: 33 µM

Question: And the TGI (HCT-15 colon)?
Answer: 66.6 µM

Question: And the TGI (OVCAR-3 ovarian)?
Answer: 41 µM

Question: With `CC1=C(C(=O)Nc2ccc(F)c(Cl)c2)C(c2cccc(Oc3ccccc3)c2)NC(=O)N1` (stereo not drawn) as the molecule, how does the GI50 (TK-10 renal) read?
Answer: 8.67 µM

Question: What about the TGI (TK-10 renal) of the same molecule?
Answer: 21.7 µM

Question: What about the GI50 (SK-MEL-28 melanoma) of the same molecule?
Answer: 14.7 µM

Question: What about the TGI (SK-MEL-28 melanoma) of the same molecule?
Answer: 28.1 µM

Question: And the GI50 (OVCAR-5 ovarian)?
Answer: 14.9 µM

Question: And the TGI (OVCAR-5 ovarian)?
Answer: 28.2 µM

Question: What about the GI50 (HCT-116 colon) of the same molecule?
Answer: 12.2 µM

Question: What about the TGI (HCT-116 colon) of the same molecule?
Answer: 24.6 µM

Question: What about the GI50 (NCI-H460 lung) of the same molecule?
Answer: 15.7 µM

Question: And the TGI (NCI-H460 lung)?
Answer: 38.4 µM

Question: And the GI50 (NCI-H23 lung)?
Answer: 15.4 µM

Question: And the TGI (NCI-H23 lung)?
Answer: 28.8 µM

Question: What about the GI50 (786-0 renal) of the same molecule?
Answer: 15.4 µM

Question: What about the TGI (786-0 renal) of the same molecule?
Answer: 29.8 µM

Question: And the GI50 (HCT-15 colon)?
Answer: 15.4 µM

Question: What about the TGI (HCT-15 colon) of the same molecule?
Answer: 28.9 µM

Question: What about the GI50 (OVCAR-3 ovarian) of the same molecule?
Answer: 20.7 µM

Question: And the TGI (OVCAR-3 ovarian)?
Answer: 57.3 µM

Question: How did the TGI (TK-10 renal) turn out when `CC1=Nn2c(nnc2-c2ccc(N)cc2)NC(C)(C)C1` was run?
Answer: > 100 µM

Question: And the TGI (SK-MEL-28 melanoma)?
Answer: > 100 µM

Question: And the TGI (OVCAR-5 ovarian)?
Answer: > 100 µM

Question: What about the TGI (NCI-H460 lung) of the same molecule?
Answer: > 100 µM

Question: What about the TGI (NCI-H23 lung) of the same molecule?
Answer: > 100 µM

Question: And the TGI (MOLT-4 leukemia)?
Answer: > 100 µM

Question: What about the TGI (786-0 renal) of the same molecule?
Answer: > 100 µM

Question: And the TGI (HCT-15 colon)?
Answer: > 100 µM

Question: What about the TGI (OVCAR-3 ovarian) of the same molecule?
Answer: > 100 µM

Question: `COc1cccc2c(=O)c3c(sc12)c(NCCN(C)C)nc1ccccc13` was tested. Which GI50 (SK-MEL-28 melanoma) did it give?
Answer: 1.92 µM

Question: And the TGI (SK-MEL-28 melanoma)?
Answer: 3.49 µM

Question: And the GI50 (OVCAR-5 ovarian)?
Answer: 1.65 µM

Question: And the TGI (OVCAR-5 ovarian)?
Answer: 3.3 µM

Question: And the GI50 (HCT-116 colon)?
Answer: 0.538 µM

Question: What about the TGI (HCT-116 colon) of the same molecule?
Answer: 1.85 µM

Question: And the GI50 (NCI-H460 lung)?
Answer: 1.34 µM

Question: And the TGI (NCI-H460 lung)?
Answer: 2.88 µM

Question: And the GI50 (NCI-H23 lung)?
Answer: 1.51 µM

Question: What about the TGI (NCI-H23 lung) of the same molecule?
Answer: 3.16 µM

Question: What about the GI50 (MOLT-4 leukemia) of the same molecule?
Answer: 0.398 µM

Question: And the TGI (MOLT-4 leukemia)?
Answer: 1.66 µM

Question: And the GI50 (786-0 renal)?
Answer: 1.65 µM

Question: What about the TGI (786-0 renal) of the same molecule?
Answer: 3.16 µM

Question: What about the GI50 (HCT-15 colon) of the same molecule?
Answer: 1.06 µM

Question: What about the TGI (HCT-15 colon) of the same molecule?
Answer: 2.41 µM

Question: And the GI50 (OVCAR-3 ovarian)?
Answer: 1.61 µM

Question: What about the TGI (OVCAR-3 ovarian) of the same molecule?
Answer: 3.22 µM

Question: `NC(CCSC(F)F)C(=O)O` (stereo not drawn) was tested. Which TGI (TK-10 renal) did it give?
Answer: > 100 µM

Question: And the TGI (SK-MEL-28 melanoma)?
Answer: > 100 µM

Question: What about the TGI (OVCAR-5 ovarian) of the same molecule?
Answer: > 100 µM

Question: What about the TGI (HCT-116 colon) of the same molecule?
Answer: > 100 µM

Question: What about the TGI (NCI-H460 lung) of the same molecule?
Answer: > 100 µM

Question: What about the TGI (NCI-H23 lung) of the same molecule?
Answer: > 100 µM

Question: What about the TGI (MOLT-4 leukemia) of the same molecule?
Answer: > 100 µM

Question: And the TGI (786-0 renal)?
Answer: > 100 µM

Question: What about the TGI (OVCAR-3 ovarian) of the same molecule?
Answer: > 100 µM

Question: `COc1cc(/C=C2/C(=O)NC(Cc3cc(OC)c(OC)c(C)c3OC)C(=O)N2Cc2ccccc2)c(OC)c(C)c1OC` (stereo not drawn) was tested. Which TGI (TK-10 renal) did it give?
Answer: > 100 µM

Question: What about the TGI (SK-MEL-28 melanoma) of the same molecule?
Answer: > 100 µM

Question: And the TGI (OVCAR-5 ovarian)?
Answer: > 100 µM

Question: And the TGI (HCT-116 colon)?
Answer: > 100 µM

Question: And the TGI (NCI-H460 lung)?
Answer: > 100 µM

Question: And the TGI (NCI-H23 lung)?
Answer: > 100 µM

Question: What about the TGI (MOLT-4 leukemia) of the same molecule?
Answer: 70.5 µM

Question: And the TGI (786-0 renal)?
Answer: > 100 µM

Question: What about the TGI (OVCAR-3 ovarian) of the same molecule?
Answer: > 100 µM

Question: Which results are given for `CCOc1ccccc1NC(=O)C1=C(C)NC(C)=C(C(=O)Nc2ccccc2OCC)C1c1ccc(NC(C)=O)cc1`?
Answer: TGI (TK-10 renal): > 100 µM; TGI (SK-MEL-28 melanoma): > 100 µM; TGI (OVCAR-5 ovarian): > 100 µM; TGI (NCI-H460 lung): > 100 µM; TGI (NCI-H23 lung): > 100 µM; TGI (MOLT-4 leukemia): > 100 µM; TGI (786-0 renal): > 100 µM; TGI (OVCAR-3 ovarian): > 100 µM

Question: With `Cc1cccc2c1C(=O)OC2(C)c1cccc2ccccc12` (stereo not drawn) as the molecule, how does the TGI (TK-10 renal) read?
Answer: 95.2 µM

Question: What about the TGI (SK-MEL-28 melanoma) of the same molecule?
Answer: > 100 µM

Question: And the TGI (OVCAR-5 ovarian)?
Answer: > 100 µM

Question: And the TGI (NCI-H460 lung)?
Answer: > 100 µM

Question: What about the TGI (NCI-H23 lung) of the same molecule?
Answer: > 100 µM

Question: What about the TGI (MOLT-4 leukemia) of the same molecule?
Answer: 88.8 µM

Question: What about the TGI (786-0 renal) of the same molecule?
Answer: > 100 µM

Question: And the TGI (HCT-15 colon)?
Answer: > 100 µM

Question: And the TGI (OVCAR-3 ovarian)?
Answer: 78.8 µM

Question: Which results are given for `O=C(/C=C1/NC(=O)CS1)Nc1ccccc1`?
Answer: TGI (TK-10 renal): > 100 µM; TGI (SK-MEL-28 melanoma): > 100 µM; TGI (OVCAR-5 ovarian): > 100 µM; TGI (HCT-116 colon): > 100 µM; TGI (NCI-H460 lung): > 100 µM; TGI (NCI-H23 lung): > 100 µM; TGI (MOLT-4 leukemia): > 100 µM; TGI (786-0 renal): > 100 µM; TGI (OVCAR-3 ovarian): > 100 µM

Question: Which results are given for `O=C1c2c(nc3ccccc3c2-c2ccccc2)CN1Nc1ccccc1`?
Answer: TGI (TK-10 renal): > 100 µM; TGI (OVCAR-5 ovarian): > 100 µM; TGI (HCT-116 colon): > 100 µM; TGI (MOLT-4 leukemia): > 100 µM; TGI (786-0 renal): > 100 µM; TGI (OVCAR-3 ovarian): > 100 µM
